This is an account of results in US7951598B2, “Differential hemolysis of a whole blood sample” (Roche Diagnostics Operations, Inc., priority 2006, dated 2011).

Series [1] concerns red blood cells in EDTA-stabilized whole blood. As to the kind of experiment: Visual evaluation of hemolysis (time until hemolysate is clear). It counts as cell-based. As to the method:
Whether the conditions for differential hemolysis are appropriate can be easily and preferably determined by using the following standardized procedure. A whole blood sample with a hematocrit of 40 is diluted 1:10 and mixed 1:1 with the candidate hemolysis reagent. The efficacy of a reagent for bringing about differential hemolysis is seen visually. Upon lysis of the erythrocytes the mixture becomes clear. If precipitation of sample constituents occurs the sample becomes turbid or viscous or both.
(§1) Solution A: Fresh EDTA-stabilized whole blood is diluted with 0.15 molar sodium chloride solution in the ratio 1:10 (50 μL EDTA-blood plus 450 μL sodium chloride solution).
In the case of the addition of a second compound, e.g. potassium iodide (1-Butyl-3-methyl pyridiniumchloride/KJ) the stated salt is added in an approximately equimolar amount.
Hemolysate is prepared by mixing solution A and B in equal volumes, e.g. 500 μL solution A plus 500 μL solution B.
After mixing the hemolysate is inspected visually for turbidometry and clearness immediately after mixing, after 1 minute, 2, 5, 6, 7, 20 and 40 minutes. The time until a clear solution is observed is recorded.

Series [2] has as its system erythrocytes in whole blood. Briefly: Microscopic evaluation of hemolysis, May-Grünwald staining. It counts as cell-based. How it is done: as §1
Solution B: A solution of the hemolysis reagent in 0.15 molar sodium chloride is prepared where the concentration of the hemolysis reagent is twice as high as the desired final concentration in the hemolysate, e.g. to get a final concentration of 25% of 1-Butyl-4-methylpyridinium tetrafluoroborate a solution of 50% ([…] salt plus 50 mL 0.15 molar sodium chloride in water) is prepared. In the case of the addition of a second anion, e.g. iodide (1-Butyl-3-methylpyridiniumchloride/KJ) the stated salt is added in an equimolar amount.
Hemolysate is prepared by mixing solution A and B in equal volumes, e.g. 20 μL solution A plus 20 μL solution B.
After mixing of the hemolysate a droplet is smeared on a microscope slide, air dried at room temperature and stained with May-Grünwald staining reagent (Merck Cat. No. 1.01424 May-Grünwald's Eosin Methylene Blue Solution).
Microscopy is performed by oil immersion light microscopy (magnification ×630).

Series [3] deals with erythrocytes in whole blood. Briefly: Microscopic evaluation of hemolysis, Trypane blue staining. It counts as cell-based. The settings on record: reagent 25%, 1 in 10 diluted whole blood. How it is done: The integrity of red blood cells can for example be easily assessed by appropriate life stains. In a preferred embodiment according to the present invention trypane blue is used in order to assess the integrity of a red blood cell, membrane. […] The membrane integrity of a red blood cell is easily assessed under the microscope after staining a sample with trypane blue. The percentage of disrupted red blood cells is calculated by counting intact red blood cells before and after the treatment, by then dividing the first number by the latter number and by then multiplying this value by 100. Red blood cells that are solubilized are referred to as lyzed red blood cells or as lyzed erythrocytes.
as §1
Solution B: A solution of the hemolysis reagent in 0.15 molar sodium chloride is prepared where the concentration of the hemolysis reagent is twice as high as the desired final concentration in the hemolysate, e.g. to get a final concentration of 25% of 1-Butyl-4-methylpyridinium tetrafluoroborate a solution of 50% ([…] salt plus 50 mL 0.15 molar sodium chloride in water) is prepared. […]

The conditions of series [4]: in vivo; cited from earlier work.
For series [5] the following is noted: in vitro; cited from earlier work.
Setting [6] is: final concentration 25% (weight/volume), whole blood final dilution 1:20.
[7] abbreviates: final concentration 12.5% (weight/volume).

`CCCC[n+]1cccc(C)c1.[Cl-]` [1-Butyl-3-methyl pyridiniumchloride]: the “clear after (min.)” value in series [1] (setting [6]) is recorded as “turbid”.
Turning to `CCCCn1cc[n+](C)c1.F[B-](F)(F)F` [1-Butyl-3-methyl-imidazolium tetrafluoroborate], the “clear after” value in series [1] (setting [6]) was determined as 20 min.
As for `CCCCCCCCOS(=O)(=O)[O-].CCCCn1cc[n+](C)c1` [1-Butyl-3-methyl-imidazoliumoctylsulfate], the “clear after (min.)” value in series [1] (setting [6]) is listed as “immediately”.
For the molecule `CCCC[n+]1ccc(C)cc1.F[B-](F)(F)F` [1-Butyl-4-methylpyridinium tetrafluoroborate], the “clear after (min.)” value in series [1] (final concentration 6% (weight/volume)) is listed as “turbid”. Further, the “clear after” value in series [1] (setting [7]) is 40 min; in series [1] (setting [6]) it was 20 min. For the same molecule, the “light microscopy of hemolyzed whole blood, May-Grünwald staining” value in series [2] (reagent 25%, 1 in 10 diluted whole blood (FIG. 2)) is recorded as “No erythrocytes or membranes are left, nuclei are still intact”. Also, the “light microscopy of hemolyzed whole blood, Trypane blue staining” value in series [3] (2.5 min incubation time (FIG. 4a)) is “Only few residual erythrocytes are left”; in series [3] (15 min incubation time (FIG. 4b)) it was “No erythrocytes or membranes are left”.
`CCCCCC[n+]1ccccc1.[Cl-]` [1-Hexylpyridiniumchloride]: the “clear after (min.)” value in series [1] (setting [7]) is recorded as “turbid”. Further, the “clear after” value in series [1] (setting [6]) is 7 min.
With `CCCCCCCC[N+]1(C)CCCC1.[Cl-]` [1-Methyl-1-octyl pyrrolidiniumchloride], the “clear after (min.)” value in series [1] (final concentration 2.5% (weight/volume)) is on record as “turbid”; in series [1] (setting [6]), “immediately”.
With `CCCCCCCCOC[n+]1cccc(C(N)=O)c1.[Cl-]` [3-Carbamoyl-1-octyloxymethyl pyridiniumchloride], the “clear after (min.)” value in series [1] (final concentration 1.5% (weight/volume)), in series [1] (final concentration 6.25% (weight/volume)) and in series [1] (setting [7]) was “immediately” throughout.
As to `COc1c(C)c2c(c(O)c1C/C=C(\C)CCC(=O)OCCN1CCOCC1)C(=O)OC2` [MMF, mycophenolate mofetil], the therapeutic trough concentration in series [4] was 1000 to 3500 µg/L.
`CCCCCCCC[n+]1ccccc1.[Cl-]` [N-Octylpyridiniumchloride]: the “clear after” value in series [1] (setting [6]) stood at 2 min.
As for `CO[C@H]1C[C@@H]2CC[C@@H](C)[C@@](O)(O2)C(=O)C(=O)N2CCCC[C@H]2C(=O)O[C@H]([C@H](C)C[C@@H]2CC[C@@H](O)[C@H](OC)C2)CC(=O)[C@H](C)/C=C(\C)[C@@H](O)[C@@H](OC)C(=O)[C@H](C)C[C@H](C)/C=C/C=C/C=C/1C` [Sirolimus, sirolimus], the therapeutic trough concentration in series [4] was 5 to 15 µg/L.
On to `C=CC[C@@H]1/C=C(\C)C[C@H](C)C[C@H](OC)[C@H]2O[C@@](O)(C(=O)C(=O)N3CCCC[C@H]3C(=O)O[C@H](/C(C)=C/[C@@H]3CC[C@@H](O)[C@H](OC)C3)[C@H](C)[C@@H](O)CC1=O)[C@H](C)C[C@@H]2OC` [Tacrolimus, tacrolimus], for which, in series [5], the “potency relative to cyclosporin” value is on record as “up to 100 times”. For the same molecule, the therapeutic trough concentration in series [4] is 5 to 20 µg/L.
Consider `O` [water, reference compound], for which the “light microscopy of hemolyzed whole blood, May-Grünwald staining” value in series [2] (hemolyzed with water, 1 in 10 diluted whole blood (FIG. 1)) was “Erythrocyte membranes and nuclei are visible”.
